Data published in PubChem BioAssay AID330 (DTP/NCI, 2004).
“And” between values parts separate entries of the source, which are not always exact repeats. Equal entries are not always repeated. Inconclusive results and toxic doses are left out.

Test system: P388 leukemia ip, CD2F1 mice, survival T/C
Test: NCI In Vivo Anticancer Drug Screen. Data for tumor model P388 Leukemia (intraperitoneal) in CD2F1 (CDF1) mice
Settings: endpoint: median survival time, higher = longer survival
How it was run: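 Mice carrying the transplanted tumor received test compound or vehicle. Survival was recorded in each group, and the value is the treated-group measurement divided by that of the vehicle-treated control group.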

[1] = dose: 50.0 mg/kg/injection, schedule: Q01DX009 (ip), vehicle: saline with Tween-80
[2] = dose: 100.0 mg/kg/injection, schedule: Q01DX009 (ip), vehicle: saline with Tween-80
[3] = dose: 200.0 mg/kg/injection, schedule: Q01DX009 (ip), vehicle: saline with Tween-80
[4] = dose: 400.0 mg/kg/injection, schedule: Q01DX009 (ip), vehicle: saline with Tween-80
[5] = dose: 50.0 mg/kg/injection, schedule: Q01DX009 (ip), vehicle: Klucel (hydroxypropylcellulose) (HPC)
[6] = dose: 100.0 mg/kg/injection, schedule: Q01DX009 (ip), vehicle: Klucel (hydroxypropylcellulose) (HPC)
[7] = dose: 200.0 mg/kg/injection, schedule: Q01DX009 (ip), vehicle: Klucel (hydroxypropylcellulose) (HPC)
[8] = dose: 25.0 mg/kg/injection, schedule: Q01DX009 (ip), vehicle: saline with Tween-80
[9] = dose: 50.0 mg/kg/injection, schedule: Q01DX005 (ip), vehicle: saline with Tween-80
[10] = dose: 100.0 mg/kg/injection, schedule: Q01DX005 (ip), vehicle: saline with Tween-80
[11] = dose: 200.0 mg/kg/injection, schedule: Q01DX005 (ip), vehicle: saline with Tween-80
[12] = dose: 50.0 mg/kg/injection, schedule: Q01DX005 (ip), vehicle: Klucel (hydroxypropylcellulose) (HPC)
[13] = dose: 100.0 mg/kg/injection, schedule: Q01DX005 (ip), vehicle: Klucel (hydroxypropylcellulose) (HPC)

With `COc1ccc2c(c1)CSC(c1ccccc1)=C2` the T/C [1] was 100 % of control, the T/C [2] was 93 % of control and the T/C [3] was 94 % of control. For the same molecule, the T/C [4] was 92 % of control.
In the case of `CCN(CC)CCCCCCCNc1cc(OC)cc2c(C)ccnc12`, the T/C (dose: 6.25 mg/kg/injection, schedule: Q01DX009 (ip), vehicle: saline) is reported as 90 % of control, the T/C (dose: 12.5 mg/kg/injection, schedule: Q01DX009 (ip), vehicle: saline) is reported as 93 % of control and the T/C (dose: 25.0 mg/kg/injection, schedule: Q01DX009 (ip), vehicle: saline) is reported as 99 % of control.
In the case of `CC(C)(C)OOC(=O)c1ccc(Cl)cc1`, the T/C (dose: 100.0 mg/kg/injection, schedule: Q04DX002 (ip), vehicle: saline with Tween-80) is reported as 96 % of control, the T/C (dose: 200.0 mg/kg/injection, schedule: Q04DX002 (ip), vehicle: saline with Tween-80) is reported as 95 % of control and the T/C (dose: 400.0 mg/kg/injection, schedule: Q04DX002 (ip), vehicle: saline with Tween-80) is reported as 101 % of control.
For `CP1(=S)C=C(N2CCOCC2)CC1` (stereo not drawn), the T/C [5] was 100 % of control, the T/C [6] was 100 % of control and the T/C [7] was 86 % of control.
`Nc1c(Cl)c(Cl)nc(C(=O)O)c1Cl` was tested, and the T/C (dose: 25.0 mg/kg/injection, schedule: Q01DX009 (ip), vehicle: Klucel (hydroxypropylcellulose) (HPC)) was 101 % of control, the T/C [8] was 102 % of control and the T/C [5] was 86 % of control. The T/C [1] was 100 % of control, the T/C [6] was 93 % of control and the T/C [2] was 100 % of control. For the same molecule, the T/C [7] was 93 % of control, the T/C [3] was 111 % of control and the T/C [4] was 115 % of control.
In the case of `C[C@]12CC[C@H]3[C@@H](CCC4=CC(=O)CC[C@@]43C)[C@@H]1CC[C@@H]2C(=O)C=O`, the T/C [5] is reported as 109 % of control, the T/C [6] is reported as 106 % of control and the T/C [7] is reported as 103 % of control.
`COC1=NO[C@@H]2C=CO[C@H]12` was tested, and the T/C [9] was 105 % of control, the T/C [10] was 100 % of control and the T/C [11] was 93 % of control.
For `CC(C)CC(NC(=O)C(Cc1ccccc1)NC(=O)CNC(=O)C(C)NC(=O)C(N)Cc1ccc(O)cc1)C(=O)O` (stereo not drawn), the T/C [9] was 93 % of control, the T/C [10] was 109 % of control and the T/C [11] was 91 % of control.
In the case of `C=C1C(=O)OCC1(C(=O)OCC)C(=O)OCC`, the T/C (dose: 4.0 mg/kg/injection, schedule: Q01DX009 (ip), vehicle: saline with Tween-80) is reported as 117 % of control, the T/C (dose: 8.0 mg/kg/injection, schedule: Q01DX009 (ip), vehicle: saline with Tween-80) is reported as 117 % of control and 124 % of control and the T/C (dose: 16.0 mg/kg/injection, schedule: Q01DX009 (ip), vehicle: saline with Tween-80) is reported as 115 % of control. The T/C (dose: 32.0 mg/kg/injection, schedule: Q01DX009 (ip), vehicle: saline with Tween-80) was 115 % of control.
`CCC(C(=O)Nc1ccccc1-c1ccccc1)c1ccccc1` (stereo not drawn) was tested, and the T/C (dose: 6.25 mg/kg/injection, schedule: Q01DX009 (ip), vehicle: saline with Tween-80) was 110 % of control, the T/C (dose: 12.5 mg/kg/injection, schedule: Q01DX009 (ip), vehicle: saline with Tween-80) was 101 % of control and the T/C [8] was 96 % of control. The T/C (dose: 100.0 mg/kg/injection, schedule: Q01DX009 (ip), vehicle: saline) was 96 % of control and the T/C (dose: 200.0 mg/kg/injection, schedule: Q01DX009 (ip), vehicle: saline) was 87 % of control.
With `[Co].[N-]=C=S.[N-]=C=S.[N-]=C=S.[NH-]CC[N-]CC[NH-]` the T/C (dose: 2.5 mg/kg/injection, schedule: Q01DX009 (ip), vehicle: saline) was 114 % of control, the T/C (dose: 5.0 mg/kg/injection, schedule: Q01DX009 (ip), vehicle: saline) was 114 % of control and the T/C (dose: 10.0 mg/kg/injection, schedule: Q01DX009 (ip), vehicle: saline) was 107 % of control. For the same molecule, the T/C (dose: 22.0 mg/kg/injection, schedule: Q01DX009 (ip), vehicle: saline) was 88 % of control, the T/C (dose: 44.0 mg/kg/injection, schedule: Q01DX009 (ip), vehicle: saline) was 100 % of control and the T/C (dose: 50.0 mg/kg/injection, schedule: Q01DX009 (ip), vehicle: saline) was 118 % of control.
For `CCN(c1ccccc1C(=O)O)S(=O)(=O)c1ccc(C)cc1`, the T/C [12] was 104 % of control and the T/C [13] was 106 % of control.
For `CC(C)(C)C(CO)CNc1ccccc1` (stereo not drawn), the T/C [5] was 110 % of control, the T/C [6] was 110 % of control and the T/C [7] was 107 % of control.
For `COc1c(O)c2c(c3cc(C(=O)N4CCc5c4c(O)c(OC)c4[nH]c(C(=O)N6CC7CC78C6=CC(=O)c6[nH]cc(C)c68)cc54)[nH]c13)CCN2C(N)=O` (stereo not drawn), the T/C (dose: 0.01 mg/kg/injection, schedule: Q04DX003 (ip), vehicle: other) was 190 % of control, the T/C (dose: 0.03 mg/kg/injection, schedule: Q04DX003 (ip), vehicle: other) was 190 % of control and 211 % of control and the T/C (dose: 0.04 mg/kg/injection, schedule: Q04DX003 (ip), vehicle: DMSO) was 150 % of control. For the same molecule, the T/C (dose: 0.1 mg/kg/injection, schedule: Q04DX003 (ip), vehicle: DMSO) was 166 % of control, the T/C (dose: 0.1 mg/kg/injection, schedule: Q04DX003 (ip), vehicle: other) was 118 % of control and 98 % of control and the T/C (dose: 2.6 micrograms/kg/injection, schedule: Q01DX009 (ip), vehicle: other) was 120 % of control. For the same molecule, the T/C (dose: 4.0 micrograms/kg/injection, schedule: Q01DX009 (ip), vehicle: other) was 119 % of control, the T/C (dose: 10.0 micrograms/kg/injection, schedule: Q04DX003 (ip), vehicle: other) was 163 % of control and the T/C (dose: 13.0 micrograms/kg/injection, schedule: Q01DX009 (ip), vehicle: DMSO) was 94 % of control. The T/C (dose: 13.0 micrograms/kg/injection, schedule: Q04DX003 (ip), vehicle: other) was 124 % of control, the T/C (dose: 20.0 micrograms/kg/injection, schedule: Q04DX003 (ip), vehicle: other) was 120 % of control and the T/C (dose: 21.6 micrograms/kg/injection, schedule: Q01DX009 (ip), vehicle: DMSO) was 95 % of control. The T/C (dose: 30.0 micrograms/kg/injection, schedule: Q04DX003 (ip), vehicle: other) was 181 % of control, the T/C (dose: 36.0 micrograms/kg/injection, schedule: Q01DX009 (ip), vehicle: DMSO) was 98 % of control and the T/C (dose: 60.0 micrograms/kg/injection, schedule: Q01DX009 (ip), vehicle: DMSO) was 93 % of control. The T/C (dose: 64.8 micrograms/kg/injection, schedule: Q04DX003 (ip), vehicle: DMSO) was 153 % of control, the T/C (dose: 64.8 micrograms/kg/injection, schedule: Q04DX003 (ip), vehicle: saline) was 156 % of control and the T/C (dose: 88.5 micrograms/kg/injection, schedule: Q01DX001 (ip), vehicle: other) was 153 % of control. For the same molecule, the T/C (dose: 100.0 micrograms/kg/injection, schedule: Q01DX009 (ip), vehicle: DMSO) was 95 % of control, the T/C (dose: 100.0 micrograms/kg/injection, schedule: Q04DX003 (ip), vehicle: other) was 93 % of control and the T/C (dose: 108.0 micrograms/kg/injection, schedule: Q04DX003 (ip), vehicle: DMSO) was 161 % of control. The T/C (dose: 133.0 micrograms/kg/injection, schedule: Q01DX001 (ip), vehicle: other) was 155 % of control, the T/C (dose: 180.0 micrograms/kg/injection, schedule: Q04DX003 (ip), vehicle: DMSO) was 170 % of control and the T/C (dose: 200.0 micrograms/kg/injection, schedule: Q01DX001 (ip), vehicle: other) was 162 % of control. The T/C (dose: 300.0 micrograms/kg/injection, schedule: Q04DX003 (ip), vehicle: saline) was 105 % of control and the T/C (dose: 450.0 micrograms/kg/injection, schedule: Q01DX001 (ip), vehicle: other) was 157 % of control.
In the case of `S=c1cc(S)sc2c1c(=S)sc1nc3ccccn3c(=S)c12`, the T/C (dose: 12.5 mg/kg/injection, schedule: Q01DX005 (ip), vehicle: Klucel (hydroxypropylcellulose) (HPC)) is reported as 96 % of control, the T/C (dose: 25.0 mg/kg/injection, schedule: Q01DX005 (ip), vehicle: Klucel (hydroxypropylcellulose) (HPC)) is reported as 99 % of control and 98 % of control and the T/C [12] is reported as 96 % of control. The T/C [13] was 107 % of control and 94 % of control.
With `CCOC(=O)/C(C#N)=C/C=C1/C=CC=CN1N=C(SC)SC` the T/C (dose: 100.0 mg/kg/injection, schedule: Q01DX001 (ip), vehicle: saline with Tween-80) was 95 % of control, the T/C (dose: 200.0 mg/kg/injection, schedule: Q01DX001 (ip), vehicle: saline with Tween-80) was 86 % of control and the T/C (dose: 400.0 mg/kg/injection, schedule: Q01DX001 (ip), vehicle: saline with Tween-80) was 87 % of control.
With `COc1cccc2c1C(=O)c1c(O)c3c(c(O)c1C2=O)C[C@@](O)(C(=O)COc1ccccc1)C[C@@H]3OC1CC(N)C(O)C(C)O1` (stereo partly drawn) the T/C (dose: 1.56 mg/kg/injection, schedule: Q01DX009 (ip), vehicle: water) was 151 % of control and 169 % of control, the T/C (dose: 3.13 mg/kg/injection, schedule: Q01DX009 (ip), vehicle: water) was 155 % of control and 179 % of control and the T/C (dose: 6.25 mg/kg/injection, schedule: Q01DX009 (ip), vehicle: water) was 174 % of control and 186 % of control. For the same molecule, the T/C (dose: 12.5 mg/kg/injection, schedule: Q01DX009 (ip), vehicle: water) was 176 % of control and 179 % of control.
